We go through seven molecules from patent publication US20140011755A1, “Cardiac Glycosides for Treating Autoimmune Disease” (Department of Veterans Affairs, priority 2010, published 2014).

“Also recorded” adds a separate entry of the source. Where two headings read alike, the source gives them in different places.

The conditions of series [1]: cited from earlier work; for Half-life: in vivo; for Onset (m): onset of action; for Peak: time to maximal effect.
Another series has as its system T cell receptor. The series is classed as cell-based, mice. As for the experimental part:
(§1) Activity was monitored by ^3H-thymidine incorporation as a read-out for proliferation. […] Cell type(s) in the splenocyte population responsive to therapeutic concentrations of cardiac glycoside were determined by identifying the population of cells that responded to a dose-dependent decrease in activity in the presence of stimulant, defined as ligand(s) binding to cognate receptor(s). Activity was analyzed by: ^3H-thymidine or BrdU incorporation to monitor proliferation or by ELISA to monitor cytokine production. Splenic T lymphocytes were isolated by negative selection (MACS, Miltinyi Biotec) and are stimulated with PMA, ConA or through the TCR with anti-CD3/anti-CD28 Dynabeads (Invitrogen) and collagen II (all non-TNFR receptors/pathways). […] Peritoneal and bone marrow-derived macrophages were isolated from CIA mice in the presence of M-CSF growth factor and were stimulated with TNF and CD40 ligand (CD40L). […] Splenic B lymphocytes were isolated by negative selection (MACS, Miltinyi Biotec) and were stimulated with BAFF (BLyS), CD40L or through the BCR with anti-IgM u-chain specific antibodies.

The conditions of series [2]: CHCI3/16% aqueous methanol (MeOH); cited from earlier work.
The subject of series [3] is TNF-mediated NFκB activity in HeLa cells. The series can be described thus: NFκB luciferase reporter assay in TNF-stimulated HeLa cells. Format: cell-based. Conditions: pre-treatment 6 hours with 0-500 nM, 50 ng/mL TNF. As for the experimental part:
FIG. 8. […] Values represent mean light units produced. Error bars represent SEM, and statistical significance was determined by unpaired T-test. Single and double asterisks represent P-values of 0.01 or 0.001, respectively. […] Samples were harvested at designated time points and were fractionated into nuclear and cytoplasmic lysates (Pierce). Lysates were quantified using BCA (Pierce), and were equally loaded according to total protein. Membranes were probed for levels of nuclear phospho-p65 (ReIA), phospho-ReIB, and histone (histone served as loading control and fractionation method control) and cytoplasmic degradation of IκBα (beta-tubulin served as loading control and fractionation method control).
HeLa cells were co-transfected with the reporter pNFκB-luc and control vector pTAL (Renilla) for 18 h prior to incubation with 0-500 nM cardiac glycoside for 6 h. Cells are stimulated with 50 ng/mL TNF. […] FIG. 8 B).
(In general: A reporter such as luciferase makes a cellular process visible.)

Series [4] deals with collagen-induced arthritis (CIA). Format: in vivo, DBA1/J mice. As to conditions: for average clinical arthritis scores compared to vehicle, prevention study: first dose one day prior to boost, 0.3 mg/kg digitoxin, 0.03 mg/kg ouabain, […] proscillaridin, 0.35 mg/kg digoxin, […] bufalin, 15 mice per group.
A further series relates to TNF, IL-6 and IL-1beta. As to the kind of experiment: Serum cytokine ELISA in CIA treatment groups. Format: in vivo. Conditions: serum from 3 mice per treatment group, ELISA in triplicate. From the text:
FIG. 9. Serum cytokine levels are similar between vehicle and cardiac glycoside treatment groups. […] The unpaired student t-test was used to assess significance.
Background: ELISA stands for enzyme-linked immunosorbent assay.

The test system of another series is rheumatoid arthritis. Conditions: cited from earlier work.
For a further series, the target named is T1, CD40 (Mus musculus, UniProt P27512).
T1 construct: Peritoneal and bone marrow-derived macrophages were isolated from CIA mice; endogenous in cells; host or cells: peritoneal and bone marrow-derived macrophages from CIA mice
T1 sequence (P27512 20-289): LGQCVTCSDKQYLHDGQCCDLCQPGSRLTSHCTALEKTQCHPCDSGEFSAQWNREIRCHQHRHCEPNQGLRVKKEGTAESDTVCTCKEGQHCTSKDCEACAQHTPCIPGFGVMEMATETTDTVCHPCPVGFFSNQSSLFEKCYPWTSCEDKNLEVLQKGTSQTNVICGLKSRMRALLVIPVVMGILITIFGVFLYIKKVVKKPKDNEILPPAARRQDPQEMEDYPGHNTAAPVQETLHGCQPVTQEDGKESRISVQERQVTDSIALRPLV
Format: cell-based, mice. As to conditions: pre-treatment with 3.3 or 33 nM. As for the experimental part:
as §1

Another series has as its system TNFR. The series is classed as cell-based, mice. Conditions: pre-treatment with 3.3 or 33 nM. On the procedure: as §1
The nature of series [5]: Serum concentration obtained with experimental dosing regimen, mouse. Format: in vivo. Conditions: 0.2 mg/kg per diem, i.p., experimentally determined. As for the experimental part: Dosing regimens in humans vary according to the cardiac glycoside and constitution thereof. Table 3 depicts representative dosing regimens reported in the literature compared to experimental regiments used in mice that are representative of human dosing. Successful dosing detailed in this application includes but is not limited to 0.03-0.4 mg/kg., or from 0.001 to 5 mg/kg.

Series [6] relates to collagen-induced arthritis (CIA) joints. The series is classed as in vivo, DBA1/J mice. As to conditions: cross-sectioned ankle joints, CIA prevention groups. As for the experimental part: FIG. 7. Cardiac glycosides reduce joint pathology in the CIA mouse model for rheumatoid arthritis. Blinded scoring was performed on histologic sections of joints harvested from mice at the end of a CIA prevention study (A-C). Joints derived from three representative mice belonging to each prevention group (A-C) were decalcified, fixed and stained with tolidine blue, followed by scoring by an examiner blinded to treatment status for the severity of synovitis (inflammation), pannus (growth of the synovial lining), and erosions of bone. (D-G) Joints derived from three representative mice belonging to each prevention group were decalcified, fixed, and stained with hematoxylin and eosin. Cross-sectioned ankle joints from vehicle (D), digitoxin (E), ouabain (F) and proscillaridin (G) treated mice are presented. Error bars represent SEM, and asterisks indicate P-values less than 0.05 by Mann-Whitney test.
In treatment studies, mice were randomly enrolled in treatment groups and treatment commenced when the average clinical score was at or above 2. […] Daily dosing commenced upon enrollment at the abovementioned concentrations. […] Double-blinded histopathology scoring was conducted of cross-sectioned joints taken from cardiac glycoside and vehicle recipients. […] The results obtained from these animal studies indicate that cardiac glycosides are effective at reducing the clinical manifestations of disease and reducing joint pathology in mice with collagen arthritis.
The effects of the different cardiac glycoside treatments on CIA pathology was analyzed by histological scoring. Inflammatory cell infiltrate, synovial hyperplasia, pannus formation and articular cartilage and bone deterioration were evaluated in sectioned paws of treated mice at specific time-points throughout the disease course. […] The ELISA was developed and read using BD ELISA development kit. […]

The subject of series [7] is anti-type II collagen antibodies. The series is classed as in vivo. As to conditions: sera of 6 mice per prevention group, ANOVA. On the procedure: FIG. 10. Cardiac glycosides reduce immunoglobulin levels in CIA mice. ELISAs for anti-type II collagen antibodies were performed on sera derived from 6 representative mice of each prevention group (A, B). Isotype specific antibodies for IgG1 and IgG2a (A) and IgM (B) were utilized. […] Statistical analysis was performed using ANOVA and asterisks indicate points at which the P-values were less than 0.001.
The effects of the different cardiac glycoside treatments on CIA pathology was analyzed by histological scoring. Inflammatory cell infiltrate, synovial hyperplasia, pannus formation and articular cartilage and bone deterioration were evaluated in sectioned paws of treated mice at specific time-points throughout the disease course. Histopathology scores of inflammation, pannus formation and bone and cartilage erosions were conducted by a blinded investigator on toludine blue-stained cross sections of fixed leg joints from representative mice in vehicle and glycoside groups. Pathology scoring for each of the three categories are on a scale of 0-4 with grade 0=normal, 1=mild inflammation, hyperplasia of the synovial lining, cartilage destruction without bone erosion, grades 2 to 4=increasing degrees of inflammatory cell infiltrate, synovial hyperplasia, pannus formation and cartilage and bone destruction. Error bars represent SEM and statistics were performed using the Mann-Whitney test. At the endpoint, mice are bled and serum is collected from representative mice and stored at −80 C until use. To determine anti-collagen II antibody levels and to characterize isotype prevalence, bovine collagen II (Chondrex) was coated O/N at 4 C on an ELISA plate, washed and incubated with 100 uL of 1:10 dilution of each serum sample (in triplicate) for 2 h at RT. Wells were washed and incubated with anti-mouse IgM u-chain specific (Jackson), anti-mouse IgG1, or anti-mouse IgG2a (Southern Biotech) for 1 h at RT. The ELISA was developed and read using BD ELISA development kit. Statistical analysis was performed using the two-tailed ANOVA and asterisks represent P-values less than 0.01.

For series [8] the following is noted: injectable versus other formulations; cited from earlier work.
The next series deals with MRL-Ipr splenic B cells. As to the kind of experiment: ANA production by MRL-Ipr splenic B cells in vitro. The series is classed as cell-based, mice. As to conditions: B cells pre-treated with 0.8 nM mifepristone, digitoxin 33 nM.

Take `C[C@H]1O[C@@H](O[C@H]2CC[C@@]3(C)[C@H](CC[C@@H]4[C@@H]3C[C@@H](O)[C@]3(C)[C@@H](C5=CC(=O)OC5)CC[C@]43O)C2)C[C@H](O)[C@@H]1O[C@H]1C[C@H](O)[C@H](O[C@H]2C[C@H](O)[C@H](O[C@@H]3O[C@H](CO)[C@@H](O)[C@H](O)[C@H]3O)[C@@H](C)O2)[C@@H](C)O1` [Deslanoside]: in series [1], the Half-life is on record as 33 h, the “Onset (m)” value is 10-30 m and the “Peak” value was 1 to 2 h.
For `C[C@H]1O[C@@H](O[C@H]2[C@@H](O)C[C@H](O[C@H]3[C@@H](O)C[C@H](O[C@H]4CC[C@@]5(C)[C@H](CC[C@@H]6[C@@H]5C[C@@H](O)[C@]5(C)[C@@H](C7=CC(=O)OC7)CC[C@]65O)C4)O[C@@H]3C)O[C@@H]2C)C[C@H](O)[C@@H]1O` [Digoxin, digoxin], the “proliferation of T cells in response to stimulation through the T cell receptor” value with T cell receptor was “did not alter proliferation”. Moreover, the “Partition Coefficient” value in series [2] is reported as 81.5. Also, the Half-life in series [1] is given as 36 h. In series [3], the “TNF-mediated NFκB activation (luciferase light units)” value (“TNF-mediated NFκB activation” below) was “reduced TNF-mediated NFκB activation in a dose-dependent fashion”. For the same molecule, the “average clinical arthritis scores compared to vehicle, prevention study” value in series [4] is recorded as “significantly reduced”. Moreover, the “Serum cytokine levels (TNF, IL-6 and IL-1beta) versus vehicle” value in the series with TNF, IL-6 and IL-1beta was “similar”.
Turning to `CC(=O)O[C@H]1C[C@H](O[C@H]2[C@@H](O)C[C@H](O[C@H]3[C@@H](O)C[C@H](O[C@H]4CC[C@@]5(C)[C@H](CC[C@@H]6[C@@H]5C[C@@H](O)[C@]5(C)[C@@H](C7=CC(=O)OC7)CC[C@]65O)C4)O[C@@H]3C)O[C@@H]2C)O[C@H](C)[C@H]1O[C@@H]1O[C@H](CO)[C@@H](O)[C@H](O)[C@H]1O` [Lanatoside C], in series [2], the “Partition Coefficient” value is on record as 16.2.
Turning to `CN(Cc1cnc2nc(N)nc(N)c2n1)c1ccc(C(=O)N[C@@H](CCC(=O)O)C(=O)O)cc1` [Methotrexate], in the series on rheumatoid arthritis, the “patients having some response” value is given as 70%. In the series on rheumatoid arthritis (rheumatoid arthritis patients), the onset of action is 4-6 weeks.
In the case of `C[C@@H]1O[C@@H](O[C@H]2C[C@@H](O)[C@]3(CO)[C@H]4[C@H](O)C[C@]5(C)[C@@H](C6=CC(=O)OC6)CC[C@]5(O)[C@@H]4CC[C@]3(O)C2)[C@H](O)[C@H](O)[C@H]1O` [Ouabain, ouabain], the “CD40L-mediated activation of macrophage through CD40” value on CD40 was “inhibits”. Further, the “proliferation of T cells in response to stimulation through the T cell receptor” value with T cell receptor (non-TNFR family member, therapeutic concentrations) is listed as “did not alter proliferation”. Moreover, the “TNF-mediated activation of macrophage through TNFR” value in the series with TNFR is on record as “inhibits”. Besides, in series [2], the “Partition Coefficient” value was “very low”. In [1], the Half-life is 21 h, the “Onset (m)” value is recorded as 5-10 m and the “Peak” value is 0.5 to 2 h. The “TNF-mediated NFκB activation” value in series [3] is recorded as “reduced TNF-mediated NFκB activation in a dose-dependent fashion”. The “Serum conc.” value in series [5] came to 16 ng/mL. Also, in series [6], the “immune cell infiltrate into the joints (hematoxylin and eosin)” value is listed as “decreased amounts of immune cell infiltrate”. The “disease and inflammation (clinical score, paw thickness), dosing every three days i.p.” value in series [4] (0.9 mg/kg digitoxin or 0.6 mg/kg ouabain, i.p., days −3, 0, 3, 6, 9, 12 after boost) is “significantly less disease and inflammation”. Moreover, the “onset of collagen arthritis, dosing every three days sublingual” value in [4] (0.9 mg/kg digitoxin or 0.6 mg/kg ouabain, sublingual, days −3, 0, 3, 6, 9, 12 after boost) is “significantly inhibited the onset of collagen arthritis; also recorded: effective in preventing”. The “development of CIA (Mean Visual Arthritis Score, Mean Paw Thickness), prevention study” value in series [4] (daily i.p. from the day prior to induction, digitoxin 0.3 mg/kg, ouabain 0.03 mg/kg, proscillaridin […]) is reported as “prevented the development of CIA”. Besides, the “average clinical arthritis scores compared to vehicle, prevention study” value in series [4] is “significantly reduced”. In addition, in series [4] (murine model for rheumatoid arthritis, summary statement), the “prevention and treatment of collagen-induced arthritis (CIA)” value is “potently prevent and treat”. In addition, in series [7], the “anti-type II collagen IgG1 level relative to vehicle” value is “reduced levels” and the “anti-type II collagen IgM level relative to vehicle” value is on record as “reduced levels”. Further, the bioavailability by formulation result in [8] is “higher bioavailability with injectable formulations”. In addition, the “Serum cytokine levels (TNF, IL-6 and IL-1beta) versus vehicle” value with TNF, IL-6 and IL-1beta is recorded as “similar”.
With `C[C@]12CC[C@H](O)C[C@H]1CC[C@@H]1[C@@H]2CC[C@]2(C)[C@@H](c3ccc(=O)oc3)CC[C@]12O` [bufalin], the “TNF-mediated NFκB activation” value in series [3] is recorded as “reduced TNF-mediated NFκB activation in a dose-dependent fashion”. Also, in [4], the “average clinical arthritis scores compared to vehicle, prevention study” value is “significantly reduced”. Also, the “Serum cytokine levels (TNF, IL-6 and IL-1beta) versus vehicle” value in the series on TNF, IL-6 and IL-1beta is “similar”.
With `CC#C[C@]1(O)CC[C@H]2[C@@H]3CCC4=CC(=O)CCC4=C3[C@@H](c3ccc(N(C)C)cc3)C[C@@]21C` [mifepristone], the “effect of pre-treatment on digitoxin-specific blockade of autoantibody production” value in the series on MRL-Ipr splenic B cells is “relieved”.
